The results in this text go back to patent publication US20250026721A1, “COMPOUNDS AND METHODS FOR MODULATING RAS-PI3K” (Vividion Therapeutics, Inc., priority 2023, published 2025).

SMILES strings stand for the structures.

Assay [1] has as its system pAKT(S473) in FaDu cell line. Kind of assay: In vitro Phospho-AKT(S473) HTRF analysis in FaDu cells. The assay is classed as cell-based. Conditions: Homo sapiens, 0.5 h; for IC50: FaDu cells, 30 minutes at 37° C.; for Emax: FaDu, read-out: FaDu pAKT Imax % control. The protocol:
Example 5. In Vitro Phosgho-AKT(S473) Analysis
Functional activity of the compounds to inhibit pAKT were assessed in FaDu or H358 cell lines as indicated below.
• Complete Media • FBS, Corning catalog #35-010-CV • Anti-Anti, Gibco catalog #15240-062 • 96 well plate, Corning catalog #3610 • TrypLE, Gibco catalog #12604013 • Phospho-AKT(S473) HTRF kit, Cisbio catalog #64AKSPET
Cells were detached from the tissue culture flask with TrypLE. The cells were pelleted at 500×g for 5 min, TrypLe was removed and then resuspended in the necessary volume of media+1% FBS to give the appropriate cell density (17,500 cells/mL for FaDu; 20,000 cells/mL for H358). 100 μL of cell suspension/well was dispensed into the 96-well plate while keeping the outer wells of the plate free of cells and filled with PBS to prevent evaporation of interior wells. The plate was incubated at 37° C. and allowed to adhere overnight. The cells were treated with a dose response of compound and incubated at 37° C. for 30 minutes. The cells were then processed and pAKT(S473) levels were assessed following the specifications of the Cisbio HTRF kit.
For orientation: Time-resolved FRET reads energy transfer from a long-lived donor to a nearby acceptor.

In a further assay the target is T1, PIK3CA (Homo sapiens, UniProt P42336).
T1 construct: endogenous in cells; host or cells: Jurkat cell lysate
Kind of assay: In vitro ELISA target engagement assay for PIK3CA in Jurkat cellular lysate (competition with PIK3CA Biotin Probe). Particulars: 1 hour at rt, then 500 nM PIK3CA Biotin Probe, read-out: Elisa Target Engagement Assay (TE50). The assay is classed as binding. A digest of the protocol: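 Competition format in Jurkat lysate: compound (serial dilutions, top 200 μM) for 1 h at rt, then 500 nM final biotinylated PIK3CA probe for 1 h at rt. Sandwich ELISA with capture antibody and Neutravidin-HRP luminescence read-out measured probe-labelled PIK3CA, giving TE50.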
On the technique in general: An ELISA detects its analyte on a solid surface through an enzyme-linked reagent.

T1 sequence (P42336 whole entry): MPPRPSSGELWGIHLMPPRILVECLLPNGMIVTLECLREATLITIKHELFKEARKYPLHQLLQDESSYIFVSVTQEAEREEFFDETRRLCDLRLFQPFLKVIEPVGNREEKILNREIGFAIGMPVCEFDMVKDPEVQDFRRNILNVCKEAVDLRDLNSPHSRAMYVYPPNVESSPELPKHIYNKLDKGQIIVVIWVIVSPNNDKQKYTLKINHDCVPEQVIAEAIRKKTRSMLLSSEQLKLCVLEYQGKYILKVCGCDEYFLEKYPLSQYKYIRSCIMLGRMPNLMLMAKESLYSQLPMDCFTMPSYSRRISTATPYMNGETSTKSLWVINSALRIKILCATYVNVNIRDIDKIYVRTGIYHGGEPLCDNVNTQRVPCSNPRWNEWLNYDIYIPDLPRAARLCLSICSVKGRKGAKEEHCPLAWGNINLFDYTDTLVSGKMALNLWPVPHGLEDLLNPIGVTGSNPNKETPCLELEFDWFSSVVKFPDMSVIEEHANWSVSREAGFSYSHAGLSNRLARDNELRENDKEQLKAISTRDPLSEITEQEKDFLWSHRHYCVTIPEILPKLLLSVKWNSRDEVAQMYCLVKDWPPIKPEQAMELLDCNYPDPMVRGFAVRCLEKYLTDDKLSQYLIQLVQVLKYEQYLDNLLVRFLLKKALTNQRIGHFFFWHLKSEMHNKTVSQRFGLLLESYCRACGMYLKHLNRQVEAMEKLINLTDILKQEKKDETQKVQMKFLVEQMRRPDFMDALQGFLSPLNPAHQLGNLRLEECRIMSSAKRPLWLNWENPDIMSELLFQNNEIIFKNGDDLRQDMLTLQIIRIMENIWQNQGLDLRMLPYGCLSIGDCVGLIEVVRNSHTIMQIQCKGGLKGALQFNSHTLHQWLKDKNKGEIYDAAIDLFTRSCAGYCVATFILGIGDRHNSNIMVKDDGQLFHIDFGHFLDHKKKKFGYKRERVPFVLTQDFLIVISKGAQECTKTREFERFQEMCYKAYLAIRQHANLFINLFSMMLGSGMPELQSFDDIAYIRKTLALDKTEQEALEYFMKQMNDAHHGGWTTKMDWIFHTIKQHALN
T1 sequence (P27986 whole entry partner): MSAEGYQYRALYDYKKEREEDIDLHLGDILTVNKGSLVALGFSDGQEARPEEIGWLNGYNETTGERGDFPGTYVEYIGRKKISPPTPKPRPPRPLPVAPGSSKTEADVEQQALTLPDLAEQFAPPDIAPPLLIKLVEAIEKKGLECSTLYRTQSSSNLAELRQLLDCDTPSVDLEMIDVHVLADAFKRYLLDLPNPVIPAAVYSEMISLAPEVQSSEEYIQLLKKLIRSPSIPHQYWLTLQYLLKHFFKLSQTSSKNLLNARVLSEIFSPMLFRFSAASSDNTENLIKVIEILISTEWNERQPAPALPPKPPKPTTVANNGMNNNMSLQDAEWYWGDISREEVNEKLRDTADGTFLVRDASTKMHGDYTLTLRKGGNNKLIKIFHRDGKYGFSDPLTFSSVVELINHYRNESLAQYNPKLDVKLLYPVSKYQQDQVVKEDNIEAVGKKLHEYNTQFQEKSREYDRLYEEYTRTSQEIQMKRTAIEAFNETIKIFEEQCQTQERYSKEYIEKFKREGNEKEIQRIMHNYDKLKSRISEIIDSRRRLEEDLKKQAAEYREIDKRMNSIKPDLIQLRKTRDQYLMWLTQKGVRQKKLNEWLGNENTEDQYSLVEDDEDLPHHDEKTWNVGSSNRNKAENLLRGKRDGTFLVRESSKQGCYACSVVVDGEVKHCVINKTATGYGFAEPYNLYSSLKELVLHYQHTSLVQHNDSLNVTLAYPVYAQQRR

In the case of `C[C@H](/C=C\S(C)(=O)=O)NC(=O)[C@@]1(F)CCCN(C(=O)[C@H]2CN(CC(F)(F)F)C[C@H]2c2cccc(F)c2Cl)CC1` (single isomer, unassigned) [Compound 168, (R)-1-((3*R,4*R)-4-(2-chloro-3-fluorophenyl)-1-(2,2,2-trifluoroethyl)pyrrolidine-3-carbonyl)-4-fluoro-N-((R,Z)-4-(methylsulfonyl)but-3-en-2-yl)azepane-4-carboxamide], in assay [1], the IC50 was 136 nM and the Emax stood at 90.6%. At PIK3CA, the IC50 turned out to be 215 nM.

`O=C(/C=C\CNC(=O)C1(F)CCN(S(=O)(=O)c2ccc(C(F)(F)F)cc2-c2ccccc2Cl)CC1)N1CC(F)(F)C1` [Compound 284, (Z)-1-((2′-chloro-5-(trifluoromethyl)-[1,1′-biphenyl]-2-yl)sulfonyl)-N-(4-(3,3-difluoroazetidin-1-yl)-4-oxobut-2-en-1-yl)-4-fluoropiperidine-4-carboxamide]: the IC50 was 67.4 nM in assay [1] and 61 nM at PIK3CA.

As to `C[C@H](/C=C\S(=O)(=O)[C@H]1CCN(C)C1)NC(=O)C1(F)CCN(S(=O)(=O)c2ccc(Br)cc2-c2ccccc2Cl)CC1` (single isomer, unassigned) [Compound 238, 1-((5-bromo-2′-chloro-[1,1′-biphenyl]-2-yl)sulfonyl)-4-fluoro-N-((R,Z)-4-(((*S)-1-methylpyrrolidin-3-yl)sulfonyl)but-3-en-2-yl)piperidine-4-carboxamide], the IC50 in assay [1] was 29.2 nM; at PIK3CA, 25 nM.

As to `CC[C@H](/C=C\S(C)(=O)=O)NC(=O)[C@@]1(F)CCCN(C(=O)[C@H]2CN(CC(F)(F)F)C[C@H]2c2ccccc2Cl)CC1` [Compound 198, (R)-1-((3R,4R)-4-(2-chlorophenyl)-1-(2,2,2-trifluoroethyl)pyrrolidine-3-carbonyl)-4-fluoro-N-((R,Z)-1-(methylsulfonyl)pent-1-en-3-yl)azepane-4-carboxamide], the IC50 in assay [1] is 472 nM; on PIK3CA it was 540 nM. Moreover, the Emax in assay [1] was determined as 95.2%.

For the compound `C[C@H](/C=C/C(=O)N1CC(F)(F)C1)NC(=O)[C@]1(F)CCN(S(=O)(=O)c2ccc(Br)cc2-c2ccccc2Cl)[C@H](C)C1` [Compound 153, (2R,4S)-1-((5-bromo-2′-chloro-[1,1′-biphenyl]-2-yl)sulfonyl)-N-((R,E)-5-(3,3-difluoroazetidin-1-yl)-5-oxopent-3-en-2-yl)-4-fluoro-2-methylpiperidine-4-carboxamide], in assay [1], the IC50 was found to be 204 nM and the Emax amounted to 104%. For the same compound, the IC50 on PIK3CA is 183 nM.

In the case of `C[C@H](/C=C/C(=O)N1CC(F)(F)C1)NC(=O)C1(F)CCN(S(=O)(=O)c2cnc(C(F)(F)F)cc2-c2ccccc2Cl)CC1` [Compound 213, (R,E)-1-((4-(2-chlorophenyl)-6-(trifluoromethyl)pyridin-3-yl)sulfonyl)-N-(5-(3,3-difluoroazetidin-1-yl)-5-oxopent-3-en-2-yl)-4-fluoropiperidine-4-carboxamide], the IC50 in assay [1] came to 291 nM; at PIK3CA, 230 nM. For the same compound, in assay [1], the Emax worked out at 90.8%.

`C[C@H](/C=C/C(=O)N1CC(F)(F)C1)NC(=O)[C@]1(F)CCN(S(=O)(=O)c2ccc(C(F)F)cc2-c2ccccc2Cl)[C@H](C)C1` [Compound 253, (2R,4S)-1-((2′-chloro-5-(difluoromethyl)-[1,1′-biphenyl]-2-yl)sulfonyl)-N-((R,E)-5-(3,3-difluoroazetidin-1-yl)-5-oxopent-3-en-2-yl)-4-fluoro-2-methylpiperidine-4-carboxamide]: in assay [1], the IC50 was 267 nM and the Emax was found to be 77.2%. Moreover, the IC50 on PIK3CA came to 160 nM.

Regarding `C[C@H](/C=C/C(=O)N1CC(F)(F)C1)NC(=O)[C@]1(F)CCN(S(=O)(=O)c2ccc(Br)cc2-c2cccc(Cl)c2)[C@H](C)C1` [Compound 155, (2R,4S)-1-((5-bromo-3′-chloro-[1,1′-biphenyl]-2-yl)sulfonyl)-N-((R,E)-5-(3,3-difluoroazetidin-1-yl)-5-oxopent-3-en-2-yl)-4-fluoro-2-methylpiperidine-4-carboxamide], the values for the IC50 (in assay [1]; at PIK3CA) were 305 nM and 300 nM, respectively. For the same compound, the Emax in assay [1] amounted to 106%.

Take `C[C@H](/C=C\S(C)(=O)=O)NC(=O)[C@@]1(F)CCCN(C(=O)c2ccc(C(F)(F)F)cc2-c2ccccc2Cl)CC1` [Compound 242, (R)-1-(2′-chloro-5-(trifluoromethyl)-[1,1′-biphenyl]-2-carbonyl)-4-fluoro-N-((R,Z)-4-(methylsulfonyl)but-3-en-2-yl)azepane-4-carboxamide]: the IC50 in assay [1] was determined as 138 nM; on PIK3CA, 72 nM.

Take `O=C([C@H]1CN(CC(F)(F)F)C[C@H]1c1ccccc1Cl)N1CCC[C@](F)(C(=O)N[C@@H]2C=CS(=O)(=O)C2)CC1` [Compound 176, (R)-1-((3R,4R)-4-(2-chlorophenyl)-1-(2,2,2-trifluoroethyl)pyrrolidine-3-carbonyl)-N-((R)-1,1-dioxido-2,3-dihydrothiophen-3-yl)-4-fluoroazepane-4-carboxamide]: in assay [1], the IC50 was found to be 679 nM and the Emax came out at 83.3%. Besides, on PIK3CA, the IC50 amounted to 750 nM.

Take `COC[C@@H](/C=C\S(C)(=O)=O)NC(=O)C1(F)CCN(S(=O)(=O)c2ccc(OC)cc2-c2ccccc2Cl)CC1` [Compound 248, (R,Z)-1-((2′-chloro-5-methoxy-[1,1′-biphenyl]-2-yl)sulfonyl)-4-fluoro-N-(1-methoxy-4-(methylsulfonyl)but-3-en-2-yl)piperidine-4-carboxamide]: the IC50 amounted to 557 nM in assay [1] and 170 nM at PIK3CA.

Take `O=C(/C=C/CNC(=O)C1(F)CCN(S(=O)(=O)c2ccc(Br)cc2-c2ccccc2Cl)CC1)N1CC(F)(F)C1` [Compound 282, (E)-1-((5-bromo-2′-chloro-[1,1′-biphenyl]-2-yl)sulfonyl)-N-(4-(3,3-difluoroazetidin-1-yl)-4-oxobut-2-en-1-yl)-4-fluoropiperidine-4-carboxamide]: the IC50 in assay [1] came out at 367 nM; at PIK3CA it was 140 nM.

Consider `C[C@H](/C=C/S(C)(=O)=O)NC(=O)[C@@]1(F)CCCN(C(=O)[C@H]2CN(CC(F)(F)F)C[C@H]2c2ccccc2Cl)CC1` [Compound 177, (R)-1-((3R,4R)-4-(2-chlorophenyl)-1-(2,2,2-trifluoroethyl)pyrrolidine-3-carbonyl)-4-fluoro-N-((R,E)-4-(methylsulfonyl)but-3-en-2-yl)azepane-4-carboxamide], for which, in assay [1], the IC50 is 672 nM and the Emax was 69.5%. Further, the IC50 at PIK3CA was 790 nM.

On to `C[C@H](/C=C\S(C)(=O)=O)NC(=O)C1(F)CCN(C(=O)[C@H]2CN(CC(F)F)C[C@H]2c2ccccc2Cl)CC1` [Compound 206, 1-((3R,4R)-4-(2-chlorophenyl)-1-(2,2-difluoroethyl)pyrrolidine-3-carbonyl)-4-fluoro-N-((R,Z)-4-(methylsulfonyl)but-3-en-2-yl)piperidine-4-carboxamide], for which the values for the IC50 (in assay [1]; at PIK3CA) were 718 nM and 800 nM, respectively. The Emax in assay [1] came to 106%.

As for `C[C@H](/C=C/C(=O)N1CC(F)C1)NC(=O)C1(F)CCN(S(=O)(=O)c2ccc(C(F)(F)F)cc2-c2ccccc2Cl)CC1` [Compound 216, (R,E)-1-((2′-chloro-5-(trifluoromethyl)-[1,1′-biphenyl]-2-yl)sulfonyl)-4-fluoro-N-(5-(3-fluoroazetidin-1-yl)-5-oxopent-3-en-2-yl)piperidine-4-carboxamide], in assay [1], the IC50 worked out at 688 nM and the Emax amounted to 108%. Further, the IC50 at PIK3CA was 550 nM.

As to `CCOc1ccc(S(=O)(=O)N2CC[C@@](F)(C(=O)N[C@H](C)/C=C/C(=O)N3CC(F)(F)C3)C[C@H]2C)c(-c2ccccc2Cl)c1` [Compound 298, (2R,4S)-1-((2′-chloro-5-ethoxy-[1,1′-biphenyl]-2-yl)sulfonyl)-N-((R,E)-5-(3,3-difluoroazetidin-1-yl)-5-oxopent-3-en-2-yl)-4-fluoro-2-methylpiperidine-4-carboxamide], in assay [1], the IC50 was 322 nM and the Emax is 102%. Moreover, the IC50 on PIK3CA is 720 nM.

Consider `O=C(/C=C\CNC(=O)C1(F)CCN(S(=O)(=O)c2ccc(Br)cc2-c2ccccc2Cl)CC1)N1CC(F)(F)C1` [Compound 285, (Z)-1-((5-bromo-2′-chloro-[1,1′-biphenyl]-2-yl)sulfonyl)-N-(4-(3,3-difluoroazetidin-1-yl)-4-oxobut-2-en-1-yl)-4-fluoropiperidine-4-carboxamide], for which the IC50 in assay [1] was 124 nM; at PIK3CA it was 54.1 nM.

As for `COc1ccc(S(=O)(=O)N2CCC[C@](F)(C(=O)N[C@H](C)/C=C\S(C)(=O)=O)CC2)c(-c2ccccc2Cl)c1` [Compound 312, (R)-1-((2′-chloro-5-methoxy-[1,1′-biphenyl]-2-yl)sulfonyl)-4-fluoro-N-((R,Z)-4-(methylsulfonyl)but-3-en-2-yl)azepane-4-carboxamide], the IC50 in assay [1] turned out to be 140 nM; at PIK3CA, 80 nM.
